From ChEMBL document CHEMBL1201862, “PubChem BioAssay data set” (2004)
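96-well plates; 48 h exposure; 5 concentrations. Endpoints by linear interpolation between flanking doses. Not reached: highest tested concentration assigned. GI50: concentration for 50% inhibition of growth.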 Active and inactive are the calls of the source. Cut-off read from the data, not from the text of the source: active = GI50 up to about 1.1 µM and inactive = higher.

Assays:
Experiment in all cases: growth of human tumour cells (NCI), 48 h
A498 = tested on: A498
COLO 205 = tested on: COLO 205
DMS-273 = tested on: DMS-273
Hs-578T = tested on: Hs-578T
KM-20L2 = tested on: KM-20L2
LOX IMVI = tested on: LOX IMVI
LXFL 529 = tested on: LXFL 529
MDA-MB-231 = tested on: MDA-MB-231
MDA-N = tested on: MDA-N
MOLT-4 = tested on: MOLT-4
NCI-H23 = tested on: NCI-H23
NCI-H460 = tested on: NCI-H460
NCI-H522 = tested on: NCI-H522
OVCAR-3 = tested on: OVCAR-3
OVCAR-4 = tested on: OVCAR-4
OVCAR-8 = tested on: OVCAR-8
T47D = tested on: T47D
TK-10 = tested on: TK-10
UACC-62 = tested on: UACC-62
XF498 = tested on: XF498

SMILES	GI50 (A498)	GI50 (COLO 205)	GI50 (DMS-273)	GI50 (Hs-578T)	GI50 (KM-20L2)	GI50 (LOX IMVI)	GI50 (LXFL 529)	GI50 (MDA-MB-231)	GI50 (MDA-N)	GI50 (MOLT-4)	GI50 (NCI-H23)	GI50 (NCI-H460)	GI50 (NCI-H522)	GI50 (OVCAR-3)	GI50 (OVCAR-4)	GI50 (OVCAR-8)	GI50 (T47D)	GI50 (TK-10)	GI50 (UACC-62)	GI50 (XF498)
CC(C)(C)c1nc2c(o1)/C(=N\c1ccc(F)cc1)c1ccccc1C2=O	27.4 µM (inactive)	15.7 µM (inactive)	1.73 µM (inactive)	6.68 µM (inactive)	17.1 µM (inactive)	2.56 µM (inactive)	4.4 µM (inactive)	30.2 µM (inactive)	2.37 µM (inactive)	> 100 µM (inactive)	2.26 µM (inactive)	5.74 µM (inactive)	5.36 µM (inactive)	1.06 µM (active)	28.8 µM (inactive)	7.21 µM (inactive)	> 49.3 µM (inactive)	35.7 µM (inactive)	2.55 µM (inactive)	1.71 µM (inactive)
CC1=C(C(=O)NCc2ccccc2)C(c2ccc(N(C)C)cc2)C(C(=O)NCc2ccccc2)=C(C)N1	> 100 µM (inactive)	> 100 µM (inactive)	> 100 µM (inactive)	–	> 100 µM (inactive)	–	> 100 µM (inactive)	–	–	> 100 µM (inactive)	> 100 µM (inactive)	> 100 µM (inactive)	77.8 µM (inactive)	> 100 µM (inactive)	> 100 µM (inactive)	> 100 µM (inactive)	–	> 100 µM (inactive)	> 100 µM (inactive)	> 100 µM (inactive)
CC(=O)c1ccc(NC(=O)/C(=N\NC(N)=O)C(C#N)CC(C)(C)C=O)cc1 (stereo not given)	> 100 µM (inactive)	> 100 µM (inactive)	> 100 µM (inactive)	–	> 100 µM (inactive)	> 100 µM (inactive)	> 100 µM (inactive)	–	–	> 100 µM (inactive)	> 100 µM (inactive)	> 100 µM (inactive)	> 100 µM (inactive)	–	> 100 µM (inactive)	> 100 µM (inactive)	–	> 100 µM (inactive)	> 100 µM (inactive)	> 100 µM (inactive)
COC(=O)C(CC(=O)c1cc2c(cc1I)OCO2)Cc1cc(OC)c(OC)c(OC)c1I (stereo not given)	–	> 100 µM (inactive)	> 100 µM (inactive)	–	> 100 µM (inactive)	> 100 µM (inactive)	12.2 µM (inactive)	–	–	8.67 µM (inactive)	45.6 µM (inactive)	> 100 µM (inactive)	9.06 µM (inactive)	7.21 µM (inactive)	–	> 100 µM (inactive)	–	> 100 µM (inactive)	37.2 µM (inactive)	> 100 µM (inactive)
Nc1ncnc2c1ncn2C1C=C(CO)C(O)C1O (stereo not given)	15.9 µM (inactive)	3.32 µM (inactive)	2.64 µM (inactive)	83.6 µM (inactive)	14.7 µM (inactive)	3 µM (inactive)	16.7 µM (inactive)	2.19 µM (inactive)	3.37 µM (inactive)	0.249 µM (active)	2.83 µM (inactive)	0.637 µM (active)	3.99 µM (inactive)	5.01 µM (inactive)	6.24 µM (inactive)	3.75 µM (inactive)	1.64 µM (inactive)	6.64 µM (inactive)	3.56 µM (inactive)	37.2 µM (inactive)
Nc1ccc(N)c2c1C(=O)c1ccccc1C2=O	7.35 µM (inactive)	17.8 µM (inactive)	16 µM (inactive)	–	14.4 µM (inactive)	9.02 µM (inactive)	31.1 µM (inactive)	–	–	13.4 µM (inactive)	17.7 µM (inactive)	9.51 µM (inactive)	9.48 µM (inactive)	43.9 µM (inactive)	> 100 µM (inactive)	76.2 µM (inactive)	–	4.08 µM (inactive)	15.7 µM (inactive)	> 100 µM (inactive)
Oc1cc(-c2ccc(Oc3ccccc3)cc2)nc2cc3c(cc12)OCO3	> 100 µM (inactive)	> 100 µM (inactive)	> 100 µM (inactive)	–	> 100 µM (inactive)	> 100 µM (inactive)	> 100 µM (inactive)	–	–	> 100 µM (inactive)	> 100 µM (inactive)	> 100 µM (inactive)	–	> 100 µM (inactive)	> 100 µM (inactive)	> 100 µM (inactive)	–	> 100 µM (inactive)	> 100 µM (inactive)	> 100 µM (inactive)
